In patent US20120291148A1, “TRANSGENIC PLANTS WITH ENHANCED CHARACTERISTICS” (Miami University, priority 2007, published 2012):
Where two headings read alike, the source gives them in different places.

Legend:
[1] = tested on: Arabidopsis seedlings (root growth); assay: Seedling growth on MS plates with exogenous metabolites; assay type: in vivo, Arabidopsis thaliana; details: for sensitivity of AtETHE256-OE plants compared with wild-type plants: 0 mM to 2 mM metabolite on MS plates; for inhibition at 1500 µM: Arabidopsis thaliana, 168 h, 1.5 mM valine, 7 days of growth
Procedure: Studies in Arabidopsis thaliana Heyhn were performed on the Wassilewskija (WS) ecotype. Seeds were vernalized at 4° C. for 48 hours prior to being placed in a growth chamber. For measurement of toxicity and germination rates, seeds were surfaced sterilized with 70% ethanol for 30 seconds followed by 10% bleach for 30 minutes, rinsed three times with sterile deionized water and plated on half strength Murashige and Skoog (MS) plates solidified with 0.6% Gelrite and supplemented with 1.5% sucrose, pH 6.0. Plates were vernalized for four days at 4° C. and then placed in a controlled growth chamber at 23° C. on a 16:8 light/dark cycle.
Wild-type Arabidopsis (Ws), AtETHE1256-OE, and AtETHE1294-OE seeds were sown onto half-strength MS plates with 0 mM to 2 mM valine, propionate, ethylmalonic acid, butyric acid, or crotonic acid (all purchased from Sigma). Neutralized, filter-sterilized metabolites were added after the medium was autoclaved. Once toxicity levels for wild-type seeds were obtained, wild-type, AtETHE1256-OE, and AtETHE1294-OE seeds were plated together on the same plates. Root lengths and cotyledon growth from 100 plants per stress were measured and compared after 7 days of growth.

AtETHE1 [2] = target: T1, AtETHE1 (Arabidopsis thaliana, UniProt Q9C8L4, S50M); assay: Steady-state kinetic test of candidate substrates with AtETHE1; assay type: biochemical; details: steady-state kinetic studies after screening hit
T1 construct: made in house
Procedure: (§1) Enzymatic assays were conducted at 25° C. in 10 mM MOPS, pH 7.2, on a Cary IE UV-Vis spectrophotometer. A series of thioesters of glutathione were synthesized as previously described (L. Uotila, Meth. Enzymol. 77 (1981) 424-430), and all other substrates were purchased commercially. The hydrolysis of S-D-lactoylglutathione (Sigma), S-D-acetylglutathione, S-D-acetoacetylglutathione, S-D-formylglutathione, S-D-glyocosylgutathione or S-D-pyruvylglutathione was monitored at 240 nm. S-D-mandeloylglutathione hydrolysis was monitored at 263 nm (L. Uotila, Meth. Enzymol. 77 (1981) 424-430). Hydrolysis of p-nitrophenyl phosphate (Sigma), p-nitrophenyl sulfate (Sigma), and p-nitrophenyl acetate (Sigma) was monitored at 400 nm (see R. A. Anderson, et al., Proc. Natl. Acad. Sci. 72 (1975) 2989-2993; J. J. Brandt, et al., Anal. Biochem. 272 (1999) 94-99; J. M. Armstrong, et al., J. Biol. Chem. 241 (1966) 5137-5149). The hydrolysis of L-alanine-p-nitroanilide (Sigma) was measured at 404 nm (J. J. Brandt, et al., Anal. Biochem. 272 (1999) 94-99). Ala-ala-ala-p-nitroanilide (Sigma) and y-L-Glu-p-nitroanalide (Sigma) hydrolysis was monitored at 410 nm. Hydrolysis of benzoylglycyl-L-phenylalanine was monitored at 254 nm (J. F. Sabastian, et al., Can. J. Biochem. 56 (1978) 329-333). […]

AtETHE1 expression = assay: RT-PCR of AtETHE1 mRNA in hydroponic plants under abiotic stress (Example 4); assay type: in vivo, Arabidopsis Columbia; details: 10 uM ABA 3 hours; 150 mM NaCl 12 hours (roots); 300 mM Mannitol 24 hours
Procedure: Stress studies were performed on Wild-type Arabidopsis Columbia grown hydroponically. Seeds were germinated on Rockwool (GrodanHP, Agro Dynamics Inc., East Brunswick, N.J., USA) suspended above Hoagland's solution and grown in a growth chamber maintained at 23° C. and 16 hour light, 8 hour dark cycles. For the plants stressed with abscisic acid (ABA), seedlings were grown hydroponically for 7 days and then stressed for 3 hours with 10 uM ABA. Plants were grown hydroponically for 18 days for stresses with NaCl and Mannitol. Plants were either stressed with 150 mM NaCl for 12 hours or stressed for 24 hours with 300 mM Mannitol. Plant material, roots only for NaCl stress, was immediately ground in liquid N2 and stored in the −80° C. until needed for RNA isolation.
AtETHE1 RNA levels were determined using RT-PCR on total RNA isolated from either whole plants (ABA, Mannitol treated) or from the roots (NaCl treated). […] ACT8 was used as a control.

[3] = tested on: AtETHE1 transcript levels; assay: RT-PCR of AtETHE1 transcript levels under abiotic stress (Example 5); assay type: in vivo, Arabidopsis Columbia; details: 10 μM ABA 3 hours; 150 mM NaCl or 300 mM Mannitol 24 hours
Procedure: Stress studies were performed on wild-type Arabidopsis Columbia plants grown hydroponically. Seeds were germinated on Rockwool (GrodanHP, Agro Dynamics Inc., East Brunswick, N.J., USA) suspended above Hoagland's solution (Cowgilland & Milazzo, (1989) The Culturing and Testing of Two Species of Duckweed. In W J Adams, G A Chapman, eds, Aquatic Toxicology and Hazard Assessment Vol 12. American Society for Testing and Materials, Philadelphia, Pa., pp 379-391) and grown in a growth chamber maintained at 23° C. with 16 hour light, 8 hour dark cycles. Plants stressed with abscisic acid (ABA), were grown hydroponically for 7 days and then stressed for 3 hours with 10 μM ABA. Plants were grown hydroponically for 18 days prior to treatment with either 150 mM NaCl or 300 mM Mannitol for 24 hours.
AtETHE1 RNA levels were determined by RT-PCR on total RNA (1 μg) isolated from cotyledon, root, stem, leaf, silique, and bud, and seedlings subjected to abiotic stresses. AtETHE1 cDNA was synthesized using a Thermoscript RT-PCR kit, followed by 25 cycles of PCR using the primer pair 2-3-5′ and 2-3-2. ACT8 was used as a control (An, et al., (1996) Plant J 10: 107-121).

AtETHE1 [4] = target: T1, AtETHE1; assay: Inhibition of AtETHE1 p-nitrophenyl acetate hydrolysis by metal chelator; assay type: biochemical; details: presence of metal chelator
Procedure: as §1

plants = assay: Preliminary studies of methylmalonate toxicity in plants; assay type: in vivo
[5] = Steady-state hydrolysis of p-nitrophenyl acetate by purified AtETHE1; assay type: biochemical, Arabidopsis thaliana; details: substrate p-nitrophenyl acetate; 25° C., 10 mM MOPS pH 7.2
Procedure: as §1

[6] = Thioesterase activity of AtETHE1 with SLG and other glutathione thioesters; assay type: biochemical, Arabidopsis thaliana
Procedure: as §1

[7] = recombinant rat carbonic anhydrase III, G. Kim et al. 2000; cited from earlier work

## CCCC(=O)O [butyric acid]
[1]
  sensitivity of AtETHE256-OE plants compared with wild-type plants: same sensitivity

## N[C@@H](CCC(=O)Nc1ccc([N+](=O)[O-])cc1)C(=O)O [Glu-pNA, y-L-Glu-p-nitroanalide]
AtETHE1 [2]
  substrate for AtETHE1: not to be substrates

## CC1=CC(=O)CC(C)(C)[C@@]1(O)/C=C/C(C)=C\C(=O)O [ABA, abscisic acid]
AtETHE1 expression
  fold increase of AtETHE1 expression versus control: 1.8 fold
[3]
  increase in AtETHE1 transcript levels: approximately two fold increases

## CC(C)[C@H](N)C(=O)O [valine]
[1]; AtETHE1256-OE plants, read-out: inhibition of growth
  inhibition at 1500 µM: ~40%
[1]; wild-type plants, read-out: inhibition of root growth
  inhibition at 1500 µM: ~80%

## CCC(C(=O)O)C(=O)O [ethylmalonic acid]
[1]
  sensitivity of AtETHE256-OE plants compared with wild-type plants: same sensitivity

## c1cnc2c(c1)ccc1cccnc12 [1,10-o-phenanthroline]
AtETHE1 [4]
  effect on AtETHE1 activity towards p-nitrophenyl acetate: inhibited

## CCC(=O)O [propionate]
[1]
  sensitivity of AtETHE256-OE plants compared with wild-type plants: same sensitivity

## [Cl-].[Na+] [NaCl]
AtETHE1 expression
  fold increase of AtETHE1 expression versus control: 2.1 fold
[3]
  increase in AtETHE1 transcript levels: approximately two fold increases

## OC[C@@H](O)[C@@H](O)[C@H](O)[C@H](O)CO [mannitol]
AtETHE1 expression
  fold increase of AtETHE1 expression versus control: 2.6 fold
[3]
  increase in AtETHE1 transcript levels: approximately 2.5 fold

## CC(C(=O)O)C(=O)O [methylmalonate]
plants
  toxicity in plants: toxic in plants

## C/C=C/C(=O)O [crotonic acid]
[1]
  sensitivity of AtETHE256-OE plants compared with wild-type plants: same sensitivity

## Ala-ala-ala-p-nitroanilide [Ala-Ala-Ala-pNA]
AtETHE1 [2]
  substrate for AtETHE1: not to be substrates

B1: AtETHE1: Arabidopsis thaliana ETHE1 polypeptide, recombinant, purified from E. coli; mononuclear Fe(II) β-lactamase fold protein (protein)
chain: MKLLFRQLFENESSTFTYLLADVSHPDKPALLIDPVDKTVDRDLKLIDELGLKLIYAMNTHVHADHVTGTGLLKTKLPGVKSVISKASGSKADLFLEPGDKVSIGDIYLEVRATPGHTAGCVTYVTGEGADQPQPRMAFTGDAVLIRGCGRTDFQEGSSDQLYESVHSQIFTLPKDTLIYPAHDYKGFEVSTVGEEMQHNPRLTKDKETFKTIMSNLNLSYPKMIDVAVPANMVCGLQDVPSQAN
[5]
  activity against p-NPA: 2.02±0.46 nmols/min/mg of enzyme
[6]; Example 5, over-expressed purified AtETHE1
  enzymatic activity towards SLG: no enzymatic activity
[6]; as-isolated and after incubation with excess iron, SLG and other thioester derivatives
  hydrolysis of glutathione thioesters: did not hydrolyze any of the glutathione thioesters

B2: rat carbonic anhydrase III: recombinant rat carbonic anhydrase III, literature comparator for esterase activity (protein, UniProt P14141 2-260, looked up)
Carbonic anhydrase 3: AKEWGYASHNGPEHWHELYPIAKGDNQSPIELHTKDIRHDPSLQPWSVSYDPGSAKTILNNGKTCRVVFDDTFDRSMLRGGPLSGPYRLRQFHLHWGSSDDHGSEHTVDGVKYAAELHLVHWNPKYNTFGEALKQPDGIAVVGIFLKIGREKGEFQILLDALDKIKTKGKEAPFNHFDPSCLFPACRDYWTYHGSFTTPPCEECIVWLLLKEPMTVSSDQMAKLRSLFASAENEPPVPLVGNWRPPQPIKGRVVRASFK
[7]
  esterase activity with p-nitrophenyl acetate: 25.8 nmols/min/mg
